Results taken from US12257260B2, “Pharmaceutical use of anemoside B4 against acute gouty arthritis” (priority 2018, dated 2025).

What was measured:
[1] = tested on: rats with acute gouty arthritis induced by MSU; assay: Example 1: effect of anemoside B4 on sodium urate (MSU)-induced acute gouty arthritis in rats, joint swelling; format: in vivo, SD rats; set-up: key to Swelling degree 2 h after modelling / Swelling degree 6 h after modelling / Swelling degree 8 h after modelling / Swelling degree 12 h after modelling / Swelling degree 24 h after modelling: swelling = joint volume after modeling − joint volume before modeling
Description: 2.1 Preparation of sodium urate (MSU) crystals and suspension: 5 ml of 1 mol/L NaOH solution and 800 mg sodium urate were added to 155 ml depyrogenated sterile water for injection and heated to boiling. Sodium urate was completely dissolved and then cooled down naturally under stirring. After that, 1 mol/L HCl was dropped to pH 7.0, then the solution became milky white, and was immediately centrifuged at 3000 r/min for 2 min. The crystals were collected, dried in an oven at 60° C., placed in an EP tube, and stored at 4° C. Prior to use, MSU crystals were autoclaved at 121° C. for 30 min, and dispersed in PBS to make the required concentration, i.e. to obtain a suspension of sodium urate (MSU). The film preparation of the suspension was performed, and the long fusiform crystals can be seen under the optical microscope.
2.2 Grouping, administration, and model establishment: 60 rats were randomly divided into 6 groups according to their body weights, 10 rats for each group: (1) model group; (2) colchicine group (0.3 mg/kg); (3) B4 subcutaneous injection group (5 mg/kg*2); (4) B4 intravenous injection group (5 mg/kg*2); (5) B4 intramuscular injection high-dose group (5 mg/kg*2); (6) B4 intramuscular injection low-dose group (2.5 mg/kg*2); normal group (5 rats). The normal group and the model group were injected with the same volume of normal saline, and each of B4 groups was given corresponding drugs by the corresponding route of administration for 3 days, twice a day, with an interval of 4 hours between two times.
Modeling method: on the day of modeling, the model was initially established 1 h after administrating in the drug groups. Among them: • (1) Model group: each rat was injected with 40 mg/mL MSU suspension to the back of the right ankle joint at a dose of 0.2 mL/rat; • (2) Colchicine group: the colchicine group was administered once on the day of modeling, and 1 h after administration, each rat was injected with 40 mg/mL MSU suspension on the dorsal side of the right ankle joint at a dose of 0.2 mL/mouse; • (3)-(6) B4 groups: 1 h after the last administration, each rat was injected with 40 mg/mL MSU suspension on the dorsal side of the right ankle joint at 0.2 mL/mouse, and 3 h after modeling, each test group was further administrated once.
2.3 Measurement of joint swelling: before modeling and 2 h, 4 h, 6 h, 8 h, 12 h, 24 h after modeling, the volume of the right ankle joint was measured, and the swelling degree was calculated by “joint volume after modeling-joint volume before modeling”.

[2] = tested on: rats with acute gouty arthritis induced by MSU; assay: Example 2: further investigation at reduced dose, sodium urate (MSU)-induced acute gouty arthritis in rats, joint swelling; format: in vivo, SD rats; set-up: key to Swelling degree 2 h after modelling / Swelling degree 4 h after modelling / Swelling degree 6 h after modelling: joint volume after modeling minus joint volume before modeling
From the text: Based on Example 1, the dosage of anemoside B4 was reduced, and the effect on alleviating the joint swelling of acute gouty arthritis caused by sodium urate in rats was further investigated. • 1. Experimental materials: same as item “1.” in example 1. • 2. Experimental method • 2.1 Preparation of sodium urate (MSU) crystals and suspension: same as item “2.1” in Example 1. • 2.2. Grouping, administration, and model establishment: • 2.2.1 Grouping: 50 rats were randomly divided into 5 groups according to their body weights, 10 rats for each group: • (1) model group; (2) colchicine group (0.15 mg/kg); (3) B4 subcutaneous injection group (2.5 mg/kg*2); (4) B4 intramuscular injection group (2.5 mg/kg*2); (5) B4 intravenous injection group (2.5 mg/kg*2). • 2.2.2 Administration: The model group was injected with the same volume of normal saline, and each test group (including B4 groups and colchicine group) was administered only on the day of model building. Among them, colchicine group was administered once, while each B4 group was successively administered two times with an interval of 4 h. • 2.2.3 Model establishment and measurement of joint swelling: the model was initially established 1 h after administrating in the drug groups, and the method was same as that in example 1. Before modeling and 2 h, 4 h, 6 h, 8 h, and 12 h after modeling, the volume of the right ankle joint was measured, and the swelling degree was calculated by “joint volume after modeling joint volume before modeling”. • 3.

[3] = B4 intramuscular high-dose group, 5 mg/kg * 2
[4] = B4 intramuscular low-dose group, 2.5 mg/kg * 2
[5] = B4 intravenous injection group, 5 mg/kg * 2
[6] = B4 subcutaneous injection group, 5 mg/kg * 2
[7] = B4 intramuscular injection group, 2.5mg/kg * twice
[8] = B4 intravenous injection group, 2.5mg/kg * twice
[9] = B4 subcutaneous injection group, 2.5 mg/kg * twice

## C=C(C)C1CCC2(C(=O)O[C@@H]3O[C@H](CO[C@@H]4O[C@H](CO)[C@@H](O[C@@H]5O[C@@H](C)[C@H](O)[C@@H](O)[C@H]5O)[C@H](O)[C@H]4O)[C@@H](O)[C@H](O)[C@H]3O)CC[C@]3(C)[C@H](CC[C@@H]4[C@@]5(C)CC[C@H](OC6OC[C@H](O)[C@H](O)[C@H]6O[C@@H]6O[C@@H](C)[C@H](O)[C@@H](O)[C@H]6O)[C@@](C)(CO)[C@@H]5CC[C@]43C)[C@@H]12 (stereo partly shown) [B4, anemoside B4]
[1]; [3]
  Swelling degree 2 h after modelling: 0.15 ± 0.10
  Swelling degree 4 h after modelling: 0.15 ± 0.09^Δ
  Swelling degree 6 h after modelling: 0.19 ± 0.11
  Swelling degree 8 h after modelling: 0.28 ± 0.11
  Swelling degree 12 h after modelling: 0.33 ± 0.16
  Swelling degree 24 h after modelling: 0.35 ± 0.23
[1]; B4 intramuscular injection group, 2-4 h after modelling
  swelling degree of the joints compared with the model group: significantly reduced
[1]; [4]
  Swelling degree 2 h after modelling: 0.12 ± 0.07^Δ
  Swelling degree 4 h after modelling: 0.11 ± 0.11^Δ
  Swelling degree 6 h after modelling: 0.20 ± 0.11
  Swelling degree 8 h after modelling: 0.32 ± 0.18
  Swelling degree 12 h after modelling: 0.38 ± 0.23
  Swelling degree 24 h after modelling: 0.55 ± 0.35
[1]; [5]
  Swelling degree 4 h after modelling: 0.08 ± 0.18^Δ
  Swelling degree 6 h after modelling: 0.13 ± 0.14^Δ
  Swelling degree 8 h after modelling: 0.23 ± 0.21
  Swelling degree 12 h after modelling: 0.22 ± 0.19
  Swelling degree 24 h after modelling: 0.28 ± 0.21
[1]; B4 intravenous injection group, 5 mg/kg * 2, 3 days, right ankle joint volume after minus before modelling
  Swelling degree 2 h after modelling: 0.17 ± 0.14
[1]; B4 intravenous injection group, 4-6 h after modelling
  swelling degree of the joints compared with the model group: significantly reduced
[1]; [6]
  Swelling degree 2 h after modelling: 0.10 ± 0.08^Δ
  Swelling degree 4 h after modelling: 0.07 ± 0.08^ΔΔ
  Swelling degree 6 h after modelling: 0.13 ± 0.09^Δ
  Swelling degree 8 h after modelling: 0.21 ± 0.13
  Swelling degree 12 h after modelling: 0.27 ± 0.15
  Swelling degree 24 h after modelling: 0.28 ± 0.16
[1]; B4 subcutaneous injection group, 2-6 h after modelling
  swelling degree of the joints compared with the model group: significantly reduced
[1]; administration routes and dosages of Example 1
  effect on reducing the acute joint swelling caused by sodium urate (MSU) crystals, compared with colchicine: equivalent to that of colchicine
[1]; subcutaneous, intramuscular and intravenous injection
  joint swelling of acute gouty arthritis (conclusion): significantly alleviate
[2]; B4 injection, Example 2
  alleviating the joint swelling of acute gouty arthritis (conclusion): significant effect
[2]; [7]
  Swelling degree 2 h after modelling: 0.099 ± 0.08
  Swelling degree 4 h after modelling: 0.130 ± 0.07
  Swelling degree 6 h after modelling: 0.090 ± 0.07
  Swelling degree 8 h after modelling: 0.134 ± 0.10^Δ
  Swelling degree 12 h after modelling: 0.097 ± 0.17^Δ
[2]; B4 intramuscular injection group, 8-12 h after modelling
  swelling degree of the joint compared with the model group: obviously reduced and significantly different
[2]; B4 intramuscular injection group, 12 h after modeling
  joint swelling degree, rank among groups: smallest in all groups
[2]; [8]
  Swelling degree 2 h after modelling: 0.113 ± 0.09
  Swelling degree 4 h after modelling: 0.099 ± 0.10
  Swelling degree 6 h after modelling: 0.108 ± 0.18
  Swelling degree 8 h after modelling: 0.113 ± 0.24^Δ
  Swelling degree 12 h after modelling: 0.124 ± 0.27^Δ
[2]; B4 intravenous injection group, 8-12 h after modelling
  swelling degree of the joint compared with the model group: obviously reduced and significantly different
[2]; [9]
  Swelling degree 4 h after modelling: 0.008 ± 0.11
  Swelling degree 6 h after modelling: 0.040 ± 0.09^Δ
  Swelling degree 8 h after modelling: 0.103 ± 0.18^Δ
  Swelling degree 12 h after modelling: 0.103 ± 0.16^Δ
[2]; B4 subcutaneous injection group, 2.5 mg/kg * twice, day of modelling only
  Swelling degree 2 h after modelling: 0.067 ± 0.10
[2]; B4 subcutaneous injection group, 2-8 h after modeling
  joint swelling degree, rank among groups: smallest in all groups
[2]; B4 subcutaneous injection group, 6-12 h after modelling
  swelling degree of the joint compared with the model group: obviously reduced and significantly different
[2]; administration routes and dosages of Example 2
  effect on reducing the joint swelling of acute gouty arthritis caused by sodium urate, compared with colchicine: equivalent to that of colchicine

## COc1cc2c(c(OC)c1OC)-c1ccc(OC)c(=O)cc1[C@@H](NC(C)=O)CC2 [Colchicine, colchicine, reference compound]
[1]; Colchicine group, 0.3 mg/kg
  Swelling degree 4 h after modelling: 0.13 ± 0.11^Δ
  Swelling degree 6 h after modelling: 0.19 ± 0.14
  Swelling degree 8 h after modelling: 0.25 ± 0.20
  Swelling degree 12 h after modelling: 0.35 ± 0.23
  Swelling degree 24 h after modelling: 0.33 ± 0.11
[1]; Colchicine group, 0.3 mg/kg, once on the day of modeling
  Swelling degree 2 h after modelling: 0.14 ± 0.08
[1]; colchicine group, 4 h after modelling
  swelling degree of the joints compared with the model group: significantly reduced
[2]; Colchicine group, 0.15 mg/kg
  Swelling degree 4 h after modelling: 0.082 ± 0.11
  Swelling degree 6 h after modelling: 0.056 ± 0.11^Δ
  Swelling degree 8 h after modelling: 0.135 ± 0.13^Δ
  Swelling degree 12 h after modelling: 0.128 ± 0.13^Δ
[2]; Colchicine group, 0.15 mg/kg, once on the day of model building
  Swelling degree 2 h after modelling: 0.155 ± 0.07
[2]; colchicine group, 6-12 h after modelling
  swelling degree of the joint compared with the model group: obviously reduced and significantly different
